# Experimental data: PMC3667588 (Journal of pharmacological and toxicological methods, 2012)
# Where “and” joins values, the source holds several entries; their conditions need not be identical. Equal entries are not always repeated. Where two headings read alike, the source gives them in different places.
# Assays:
# [1] = system: hiPSC-derived cardiomyocytes; assay: KIC spontaneous calcium transients in hiPSC-derived cardiomyocytes; assay type: cell-based, human; settings: for EC50 Decay (in words) / EC50 FWHM (in words) / EC50 Rise Time (in words) / EC50 T75-25 (in words): N.S., not significant vs vehicle by ANOVA/Dunnett; for Effect on spontaneous calcium transient (in words): dose-response
# L-type Ca^2+ channel = settings: CR-mc; ref Ogawa, et al., 1992; cited from earlier work
# hiPSC-CMs = assay type: cell-based, human; settings: for Effect on paced [Ca^2+]i transients at 1 µM / Effect on paced [Ca^2+]i transients at 10 µM: 1 Hz pacing; for Effect on paced [Ca^2+]i transients at 0.1 µM: 4 stimulations at 1 Hz
# hERG = settings: cited from earlier work; for Reported EC50/IC50: PC-cc, et al.
# Na^+ channel = settings: PC-Xl; ref Ramos & O'Leary, 2004; cited from earlier work
# KATP channel = settings: TM-ec; ref Houjou, et al., 1996; cited from earlier work
# hERG K^+ channel = settings: PC-Xl; ref Hansen, et al., 2006; cited from earlier work
# NRVMs [2] = assay: KIC Ca2+ transient analysis in neonatal rat ventricular myocytes; assay type: cell-based; settings: for FWHM / T75-25 / TDecay / TRise: NRVMs treated three days with 100 nM T3, Ca2+ transient
# NRVMs [3] = assay: KIC calcium transients in T3-treated NRVMs paced at 2 Hz; assay type: cell-based, rat; settings: NRVMs after T3 treatment, 100 µM, 12 seconds recording
# [4] = read-out: EC50 Decay, spontaneous calcium transients, hiPSC-CMs
# [5] = read-out: EC50 FWHM, spontaneous calcium transients, hiPSC-CMs
# [6] = read-out: EC50 Rise Time, spontaneous calcium transients, hiPSC-CMs
# [7] = read-out: EC50 T75-25, spontaneous calcium transients, hiPSC-CMs
# [8] = Homo sapiens, Cardiomyocyte, read-out: EC50 Decay
# [9] = Homo sapiens, Cardiomyocyte, read-out: EC50 FWHM
# [10] = Homo sapiens, Cardiomyocyte, read-out: EC50 Rise Time
# [11] = Homo sapiens, Cardiomyocyte, read-out: EC50 T75-25
# [12] = Average CTR minus average T3 (100 nM, three days)
smiles,measurement,setting,value
CC(=O)Oc1ccccc1C(=O)O [Aspirin],EC50 Decay (in words),[1],N.S.
same,EC50 FWHM (in words),[1],N.S.
same,EC50 Rise Time (in words),[1],N.S.
same,EC50 T75-25 (in words),[1],N.S.
same,Effect on spontaneous calcium transient (in words),[1]; hiPSC-CMs,minimal effect only at the highest concentrations
COC(=O)C1=C(C)NC(C)=C([N+](=O)[O-])C1c1ccccc1C(F)(F)F (stereo not drawn) [Bay K 8644],Effect on spontaneous calcium transient (in words),[1]; hiPSC-CMs,increased the transient amplitude and prolonged its duration
same,EC50,[1]; [4],6.38 nM
same,EC50,[1]; [5],11 nM
same,EC50,[1]; [6],1300 nM
same,EC50,[1]; [7],5.48 nM
same,Reported EC50/IC50,L-type Ca^2+ channel,10–100 nM CR-mc
COc1cc(N)c(Cl)cc1C(=O)NC1CCN(CCCOc2ccc(F)cc2)CC1OC (stereo not drawn) [Cisapride],EC50,[1]; [8],147 nM
same,EC50,[1]; [9],149 nM
same,EC50,[1]; [10],154 nM
same,EC50 T75-25 (in words),[1],N.S
same,Effect on spontaneous calcium transient at 10 nM,"[1]; hiPSC-CMs, 10 nM",prolonged the calcium transient
same,Effect on spontaneous calcium transient at 100 nM,"[1]; hiPSC-CMs, 100 nM",reduction in the intensity of the transient and prolongation of the late phase of the decay
same,Effect on spontaneous calcium transient at higher concentrations,"[1]; hiPSC-CMs, concentrations above 100 nM",completely inhibited the occurrence of spontaneous transients
same,Effect on paced [Ca^2+]i transients at 1 µM,hiPSC-CMs,almost fused and the maxima were reduced to about half of the initial peak
same,Effect on paced [Ca^2+]i transients at 10 µM,hiPSC-CMs,narrowed and follow-on maxima were decreased
same,Effect on paced [Ca^2+]i transients at 0.1 µM,hiPSC-CMs,anomalous [Ca^2+]i kinetics
same,Reported EC50/IC50,"hERG; ref Mohammad, 1997, Potet, 2001, Toga, 2007",6.5–240 nM PC-cc
CN(CCOc1ccc(NS(C)(=O)=O)cc1)CCc1ccc(NS(C)(=O)=O)cc1 [Dofetilide],EC50,[1]; [8],0.75 nM
same,EC50,[1]; [11],5.87 nM
same,EC50 FWHM (in words),[1],N.S
same,EC50 Rise Time (in words),[1],N.S.
Cc1cccc(CCN2CCC(C(=O)c3ccc(NS(C)(=O)=O)cc3)CC2)n1 [E-4031],EC50,[1]; [4],45.7 nM
same,EC50,[1]; [5],44.1 nM
same,EC50,[1]; [6],38.6 nM
same,EC50,[1]; [7],82.2 nM
O=C(NCC1CCCCN1)c1cc(OCC(F)(F)F)ccc1OCC(F)(F)F (stereo not drawn) [Flecainide],EC50,[1]; [8],1010 nM
same,EC50,[1]; [10],9670 nM
same,EC50,[1]; [11],1130 nM
same,EC50 FWHM (in words),[1],N.S.
same,Reported EC50/IC50,Na^+ channel,7.4 µM PC-Xl
CC1(C)Oc2ccc(C#N)cc2[C@@H](N2CCCC2=O)[C@@H]1O [Levcromakalim],EC50,[1]; [8],5280 nM
same,EC50,[1]; [9],9160 nM
same,EC50,[1]; [10],3720 nM
same,EC50,[1]; [11],3070 nM
same,Reported EC50/IC50,KATP channel,1.73 µM TM-ec
CCOc1cc(N)c(Cl)cc1C(=O)NCC1CN(Cc2ccc(F)cc2)CCO1 (stereo not drawn) [Mosapride],EC50 Decay (in words),[1],N.S.
same,EC50 FWHM (in words),[1],N.S.
same,EC50 Rise Time (in words),[1],N.S.
same,EC50 T75-25 (in words),[1],N.S.
same,Effect on spontaneous calcium transient (in words),[1]; hiPSC-CMs,did not induce statistically significant changes
same,Effect on spontaneous calcium transient (in words),"[1]; hiPSC-CMs, listed as mosapride",minimal effect only at the highest concentrations
same,Effect on paced [Ca^2+]i transients at 1 µM,hiPSC-CMs,no discernible differences
same,Effect on paced [Ca^2+]i transients at 10 µM,hiPSC-CMs,pattern similar to 0.1 µM cisapride
same,Effect on paced [Ca^2+]i transients at 0.1 µM,hiPSC-CMs,no discernible differences
same,Affinity for hERG relative to cisapride,"hERG; ref Toga, Kohmura, & Kawatsu, 2007",three orders of magnitude less affinity for hERG
"O=C(Nc1cc(C(F)(F)F)ccc1O)Nc1cc(C(F)(F)F)ccc1O [NS1463, 1,3-Bis-(2-hydroxy-5-trifluoromethyl-phenyl)-urea]",EC50,[1]; [8],2540 nM
same,EC50,[1]; [9],7000 nM
same,EC50,[1]; [10],3890 nM
same,EC50,[1]; [11],2330 nM
same,Reported EC50/IC50,hERG K^+ channel,10.5µM PC-Xl
CC(C)NCC(O)c1ccc(NS(C)(=O)=O)cc1 (stereo not drawn) [Sotalol],EC50,[1]; [8],85700 nM
same,EC50,[1]; [9],86300 nM
same,EC50,[1]; [10],89100 nM
same,EC50 T75-25 (in words),[1],None
same,Reported EC50/IC50,"hERG; ref Peng, 2010",268µM PC-cc
"N[C@@H](Cc1cc(I)c(Oc2ccc(O)c(I)c2)c(I)c1)C(=O)O [T3, Triiodothyronine]","Difference in ms, FWHM",NRVMs [2]; [12],311 ms
same,"Difference in ms, T75-25",NRVMs [2]; [12],215 ms
same,"Difference in ms, TDecay",NRVMs [2]; [12],190 ms
same,"Difference in ms, TRise",NRVMs [2]; [12],119 ms
same,FWHM,NRVMs [2],567 ± 9 ms
same,T75-25,NRVMs [2],439 ± 44 ms
same,TDecay,NRVMs [2],462 ± 15 ms
same,TRise,NRVMs [2],104 ms and 104 ± 14 ms
same,FWHM,NRVMs [2]; listed as T3-1,567 ms
same,T75-25,NRVMs [2]; listed as T3-1,390 ms
same,TDecay,NRVMs [2]; listed as T3-1,447 ms
same,TRise,NRVMs [2]; listed as T3-1,120 ms
same,FWHM,NRVMs [2]; listed as T3-2,558 ms
same,T75-25,NRVMs [2]; listed as T3-2,450 ms
same,TDecay,NRVMs [2]; listed as T3-2,462 ms
same,TRise,NRVMs [2]; listed as T3-2,96 ms
same,FWHM,NRVMs [2]; listed as T3-3,576 ms
same,T75-25,NRVMs [2]; listed as T3-3,477 ms
same,TDecay,NRVMs [2]; listed as T3-3,477 ms
same,Reduction of FWHM,NRVMs [2]; T3 vs control NRVMs,35%
same,Reduction of T75-25,NRVMs [2]; T3 vs control NRVMs,33%
same,Reduction of TDecay,NRVMs [2]; T3 vs control NRVMs,29%
same,Reduction of TRise,NRVMs [2]; T3 vs control NRVMs,53%
COc1ccc(CCN(C)CCCC(C#N)(c2ccc(OC)c(OC)c2)C(C)C)cc1OC (stereo not drawn) [Verapamil],EC50,[1]; [8],170 nM
same,EC50,[1]; [9],260 nM
same,EC50,[1]; [10],460 nM
same,EC50,[1]; [11],390 nM
same,Effect on spontaneous calcium transient (in words),[1]; hiPSC-CMs,dose-dependent reduction in the intensity and duration of the calcium transient
same,Effect on spontaneous calcium transient (in words),"[1]; hiPSC-CMs, listed as verapamil",completely blocked the Ca^2+ transient
C[C@@H]1CN(c2c(F)c(N)c3c(=O)c(C(=O)O)cn(C4CC4)c3c2F)C[C@H](C)N1 [sparfloxacin],Effect on paced calcium transients,NRVMs [3],highly asynchronous calcium transients
